Experimental data reported in patent US11597708B2, “Inhibitors of heat shock factors and uses thereof” (HSF Pharmaceuticals SA, priority 2016, dated 2023).
pEC50: −log10 of the molar value.

Tested on: HeLa
Assay: Alamar Blue viability assay
Assay type: cell-based, human
Conditions: for Viability of HeLa cells (Alamar Blue): 96 hours exposure, attached cells
Experimental: FIG. 5. (A) Viability of HeLa cell cultures mock-exposed (−) or exposed to the indicated concentrations of compounds 001, 058 or 115. (B) Viability of MM.1S cells mock-exposed (−) or exposed to the indicated concentrations of compound 115. Viability was assayed after 96 hours of exposure using an Alamar Blue assay.
FIG. 6. (A) HeLa cell cultures were mock-exposed (−) or exposed to the indicated concentrations of compound 115 for 24 (left panel) or 96 (right panel) hours. Cell viability of total cultures, floating cells and attached cells was assayed using an Alamar Blue assay. (B) HeLa cell cultures were mock-exposed (−) or exposed to the indicated concentrations of compound 115 for 15-96 hours. Trypan Blue dye exclusion was employed to determine numbers of live cells (left panel) and relative levels of necrotic cells (right panel). (C) HeLa cell cultures were mock-exposed (−) or exposed to the indicated concentrations of compound 115 for 6 and 24 h. Shown are relative levels of early apoptotic cells (annexin-positive, 7 aminoactinomycin D-negative). (D) Flow cytometric analysis of DNA of HeLa cell cultures mock-exposed (−) or exposed to the indicated concentrations of compound 115 for 6, 15 and 24 hours. Relative levels of apoptotic cells are indicated.
Cultures of HeLa cells were exposed for 96 hours to different concentrations of IHSF 001, 058 and 115, and viability was assessed using an Alamar Blue assay. It is noted that this standard assay examines attached cells only. This subject will be discussed in more detail below. […] The relative cytotoxicity of the compounds appears to parallel their respective activities as inhibitors of HSF1 function (inhibition of RLuc expression in Z74 cells). We next examined the viability of different human cancer cell lines subsequent to a 96-hour exposure to compound 115 (Table 3). HSF1 was reported as being required for optimal p21 expression and for p53-mediated cell cycle arrest in response to genotoxins. Logan, I. R. et al. (2009) Nucleic Acids Res. 37: 2962-2971. […] Cell lines of different p53 status were included in the experiments in order to find out whether sensitivity to IHSF 115 was related to p53 status. […] No effect of p53 status could be discovered. It is noted that a number of additional HSF inhibitors of the present disclosure were tested and found to effectively reduce the viability of human cancer cells.
Further studies were aimed at finding out whether IHSF-exposed cancer cells were only growth-arrested or were actually killed and, if they were killed, by what mechanism. In one type of experiment, parallel sets of HeLa cell cultures were exposed for either 24 or 96 hours to different concentrations of IHSF 115. The first set was assayed for viability by the Alamar Blue assay without prior removal of floating cells. Attached and floating cells were assayed separately in the second set; floating cells were subsequently re-plated and incubated for 72 hours without compound. […] The viability signal (in whole cultures and, more dramatically, when only attached cells were analyzed) decreased as a function of IHSF concentration. Most floating cells were incapable of re-attaching in the absence of compound (not shown); apparently, these cells had died. More profound effects were observed after 96 hours (right panel) than after 24 hours of exposure (left panel). […] Stained (necrotic) and unstained (live) cells were counted (FIG. 6B). […]

Structure (SMILES): CN(C(=O)/C=C/C1=NCCCO1)c1ncc(-c2cccnc2)s1 [IHSF 115, (E)-3-(5,6-Dihydro-4H-[1,3]oxazin-2-yl)-N-methyl-N-(5-pyridin-3-yl-thiazol-2-yl)-acrylamide]
- killing of HeLa cells (Alamar Blue, total, floating and attached cells) (24 or 96 hours exposure, different concentrations): killed by IHSF 115 in a concentration- and exposure time-dependent fashion
- Viability of HeLa cells (Alamar Blue) (different concentrations): decreased in a dose-dependent fashion
- pEC50 (Homo sapiens, HeLa, Cervical, P53 Wt, 96-hour exposure): 5.21

Structure (SMILES): CCOC(=O)/C=C/C(=O)Nc1nccs1 [IHSF 001, (E)-ethyl 4-oxo-4-(thiazol-2-ylamino)but-2-enoate]
- Viability of HeLa cells (Alamar Blue) (different concentrations): decreased in a dose-dependent fashion

Structure (SMILES): CCOC(=O)/C=C/C(=O)Nc1ncc(-c2cccnc2)s1 [IHSF 058, (E)-3-(5-Pyridm-3-yl-thiazol-2-ylcarbamoyl)-acrylic acid ethyl ester]
- Viability of HeLa cells (Alamar Blue) (different concentrations): decreased in a dose-dependent fashion
